A short description of data set [1]: Effect of pH on one-photon fluorescence intensity. Format: physicochemical. The conditions noted are these: physiological pH; absence and presence of free Zn2+.
Data set [2] in a line: One- and two-photon fluorescence titration with free Zn2+ (dissociation constant, fluorescence enhancement factor). The class given is binding. On the procedure: (§1) It was predicted as a result of blocking the photo-induced electron transfer (PeT) process caused by complexation with metal ions.
As a result of measuring a fluorescence increase factor (FEF=(F−Fmin)/Fmin) value of the two-photon fluorescent probe (SZn-Mito) by one- and two-photon processes, the FEF value was represented as 7 in the presence of excessive zinc ions (Table 1).
MOPS (4-morpholinepropanesulfonic acid) buffers (30 mM, pH 7.2, 0.1 M KCl) including varying amounts of ZnSO4 and 10 mM EGTA (ethylene glycol-bis(2-aminoethylether)-N,N,N′,N′-tetraacetic acid) were prepared.
The concentration of free Zn^2+ ([Zn^2+]free) was calculated from KZn-EGTA^app,[EGTA] total, and [Zn^2+]total by using following Equation 1:
After that, the stability constant of a Zn^2+ complex of EGTA (KZn-EGTA) was obtained by a conventional method known in the art. As a result, for EGTA (pH 7.2, 0.1 M KCl, 25[…]), pK1=9.40, pK2=8.79, pK3=2.70, and log KZn-EGTA=12.6 were obtained.
All protonation constants at 0.1 M ion strength workout were corrected upward by 0.11, [EGTA]total was fixed at 10 mM, and [Zn^2+]total was in the range from 0 to 9.5 mM.
In order to clearly determine a dissociation constant of the two-photon fluorescent probe, FIG. 2c as a fluorescence titration curve was obtained from FIG. 2b by using following Equation 2.
wherein F is a fluorescence intensity. Fmax is a maximum fluorescence intensity, Fo is a fluorescence intensity in the absence of Zn^2+, and [Zn^2+]free is a concentration of free Zn^2+.
Kd values that well complies with the titration curve (FIG. 2c) according to Equation 2 were calculated by using a commercial Origin software. […] A two-photon excitation fluorescence titration curve was obtained, which was fitted to Equation 2 (FIGS. 2c and 2d).

In data set [3] the test system is HeLa cells. Description: Light stability of TPEF intensity in labeled HeLa cells. Format: cell-based. The conditions noted are these: exposure 60 min.
Data set [4] deals with HeLa cells. Description: Toxicity test using a CCK-8 kit. Format: cell-based. From the text: In order to confirm whether the two-photon fluorescent probe of the present invention can detect intracellular zinc ions, the effect of the two-photon fluorescent probe (SZn-Mito) on the cells was examined by the following toxicity test.
Background: Formazan colour is commonly taken as a measure of viable cells.

Data set [5] can be described thus: Selectivity for metal cations in MOPS buffer. Format: physicochemical. The conditions noted are these: MOPS buffer pH 7.2, 1.0 μM probe. On the procedure:
The selectivity for metal cations was determined by using the MOPS buffer (30 mM MOPS, 100 mM KCl, 10 mM EGTA, pH 7.2) including the two-photon fluorescent probe. […] However, because there are very little metal ions such as Co^2+, Ni^2+ and Cu^2+ inside the cells, the two-photon fluorescent probe of the present invention has an advantage that it can detect zinc ions (Zn^2+) without the interference caused by competition with other metal ions.

The test system of data set [6] is zinc ions within the mitochondria of HeLa cells. Kind of data set: Two-photon microscopy monitoring of zinc ion changes in living HeLa cells. The class given is cell-based. On the procedure:
TPEF images were collected at a range from 425-575 nm (fs pulses, 760 nm excitation conditions);
When DTDP (2,2′-dithiodipyridine; […]), reagent capable of inducing dissociation of Zn^2+ ions from Zn^2+-binding proteins, was added to the HeLa cells labeled with the two-photon fluorescent probe (SZn-Mito), the TPEF intensity was increased. When CCCP (carbonyl cyanide m-chlorophenylhydrazone; […]), a compound capable of disrupting a transmembrane potential difference of the mitochondria and increasing the release of cations within the mitochondria, was added thereto, the TPEF intensity was decreased. Also, when the HeLa cells were treated with […] (2-mercaptopyridine N-oxide), a reagent capable of delivering Zn^2+ to the cytoplasm, the TPEF intensity was increased, and when they were treated with CCCP, the TPEF intensity was decreased (FIG. 1).

Data set [7] in a line: Optical and physical properties of the two-photon fluorescent probe in MOPS buffer. The class given is physicochemical. The conditions noted are these: absence of Zn2+. On the procedure:
In order to investigate optical and physical properties of the two-photon fluorescent probe (SZn-Mito), the following experiment was carried out by using a MOPS (3-(N-morpholino)propane sulfonic acid) buffer.
as §1

The record followed here is patent publication US9006452B2, “Method for imaging zinc activation within a mitochondrion using a two-photon fluorescent probe, and method for manufacturing the two-photon fluorescent probe” (AJOU University Industry-Academic Cooperation Foundation, priority 2011, dated 2015).

For `CN(CC(=O)NCC[P+](c1ccccc1)(c1ccccc1)c1ccccc1)c1ccc2cc(-c3nc4ccc(NCCN(Cc5ccccn5)Cc5ccccn5)cc4s3)ccc2c1` [SZn-Mito], the “reaction to pH (fluorescence intensity)” value in data set [1] was “unreacted at physiological pH”. Besides, the “detection limit for Zn2+” value in data set [2] (from fluorescence titration) is “nM range”. Further, the “FEF, fluorescence enhancement factor (F−Fmin)/Fmin, one-photon process” value in data set [2] (one-photon, presence of excessive zinc ions) came to 7. Besides, in data set [2] (two-photon, presence of excessive zinc ions), the “FEF, fluorescence enhancement factor (F−Fmin)/Fmin, two-photon process” value is reported as 7. In data set [3], the “change of TPEF intensity under continuous fs-pulse radiation (light stability)” value is “not decreased at all”. The “toxicity to cells (CCK-8 kit)” value in data set [4] is “negligible and extremely low toxicity”. Moreover, in data set [5], the “fluorescence in the presence of Co2+, Ni2+ and Cu2+” value is “fluorescence was decreased”; the “selectivity for Cd2+” value is recorded as “relatively high selectivity for Cd^2+”; the “selectivity for Zn2+ compared with Na+, K+, Ca2+, Mg2+, Mn2+, Fe2+ and Fe3+” value was “higher selectivity for Zn^2+”. Besides, the “TPEF intensity after treatment with Zn2+ and pyrithione” value in data set [6] (HeLa cells, 100 mM Zn2+ and 100 mM pyrithione) was “increased”. Also, the “TPEF intensity after addition of CCCP” value in data set [6] (labeled HeLa cells after DTDP, CCCP 10 mM) is on record as “decreased”. For the same compound, the “TPEF intensity after addition of DTDP” value in data set [6] (labeled HeLa cells, DTDP 150 mM) is given as “increased”. Moreover, in data set [7] (30 mM MOPS, 100 mM KCl, 10 mM EGTA, pH 7.2), the “λmax(1), one-photon absorption spectra” value was 388 nm. Also, in data set [7] (MOPS buffer pH 7.2), the “λmax fl, one-photon emission spectra” value worked out at 500 nm. In addition, the “10^−4 ε, molar excitation coefficient” value in data set [7] (MOPS buffer pH 7.2, value is 10^−4 ε) is 1.87 M^−1cm^−1. Further, in data set [7] (MOPS buffer pH 7.2, ±15%), the “F, fluorescence quantum yield” value is on record as 0.15.
